Experimental data as given in patent US20100093745A1, “THERAPEUTIC AGENT OR PROPHYLACTIC AGENT FOR DEMYELINATING DISEASE COMPRISING AMINO ALCOHOL DERIVATIVE AS ACTIVE INGREDIENT” (priority 2007, published 2010).

Tested on: Mouse Experimental Autoimmune Encephalomyelitis (EAE) Model
Assay: Effect on a mouse experimental autoimmune encephalomyelitis (EAE) model
Type: in vivo
Conditions: MBP-immunized mice, oral, once a day from the 5th day to 41st day after the immunization

Q: How did the “administration dose showing maximum reaction (onset inhibition)” value turn out when `C[C@](N)(CO)CCCc1ccc(Sc2cccc(C(F)(F)F)c2)cc1Cl.Cl` [compound 27, (R)-2-amino-5-[2-chloro-4-(3-trifluoromethylphenylthio)phenyl]-2-methylpentan-1-ol hydrochloride] was run?
A: 0.3 mg/kg

Q: What about the “onset of disease (clinical symptom score, total score)” value (0.01 to 0.3 mg/kg, FIG. 1 and FIG. 2) of the same molecule?
A: inhibited the onset of disease dose-dependently
